These compounds were tested against T1, human FXR (Homo sapiens, UniProt Q96RI1) (assay: transient human FXR/Gal4-luciferase reporter assay). Details: Gal4-hFXR fusion construct, luciferase reporter in HEK293 cells; overnight incubation; response as percentage of 8 μM GW-4064 control.
T1 construct: expressed in transfected cells; host or cells: HEK293 cells stably carrying a 5xGal4 response element-luciferase reporter, transiently transfected with pcDNA3.1-Gal4-FXR
T1 sequence (Q96RI1 262-486 limits assumed): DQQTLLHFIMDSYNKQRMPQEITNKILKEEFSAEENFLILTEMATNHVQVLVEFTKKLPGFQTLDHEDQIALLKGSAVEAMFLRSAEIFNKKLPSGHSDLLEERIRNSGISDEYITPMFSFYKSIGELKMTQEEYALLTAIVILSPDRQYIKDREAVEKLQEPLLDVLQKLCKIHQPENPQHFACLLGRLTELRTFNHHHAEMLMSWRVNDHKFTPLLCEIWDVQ
Format: cell-based
In short: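 HEK293 cells stably carrying a 5×Gal4-response-element firefly luciferase reporter were transiently transfected with a Gal4 DBD-human FXR LBD fusion, then treated overnight with compounds at 37 °C. Steady-Glo luminescence, minus DMSO background, was expressed as percent of the response to 8 μM GW-4064.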
`Cn1nc(C2CC2)cc1C12CCC(CN(c3cccc(S(C)(=O)=O)c3)C(=O)[C@H]3C[C@](O)(C(F)(F)F)C3)(CC1)CC2` [Example 76, (1S,3S)—N-((4-(3-cyclopropyl-1-methyl-1H-pyrazol-5-yl)bicyclo[2.2.2]octan-1-yl)methyl)-3-hydroxy-N-(3-(methylsulfonyl)phenyl)-3-(trifluoromethyl)cyclobutane-1-carboxamide] was tested, and the EC50 was 4 µM. `CCOc1cccc(N(CC23CCC(c4nc(C5CC5)no4)(CC2)CC3)C(=O)C2CCS(=O)(=O)CC2)c1` [Example 56, N-((4-(3-cyclopropyl-1,2,4-oxadiazol-5-yl)bicyclo[2.2.2]octan-1-yl)methyl)-N-(3-ethoxyphenyl)tetrahydro-2H-thiopyran-4-carboxamide 1,1-dioxide] gave an EC50 of 4 µM. In the case of `CC(C)(C)c1noc(C23CCC(CN(C(=O)C45CC(F)(C4)C5)c4ccc(F)c(C(C)(C)O)c4)(CC2)CC3)n1` [Example 128, N-((4-(3-(tert-butyl)-1,2,4-oxadiazol-5-yl)bicyclo[2.2.2]octan-1-yl)methyl)-3-fluoro-N-(4-fluoro-3-(2-hydroxypropan-2-yl)phenyl)bicyclo[1.1.1]pentane-1-carboxamide], the EC50 is reported as 4 µM. Compound `CC(C)Oc1cccc(N(CC23CCC(c4noc(C(C)(F)F)n4)(CC2)CC3)C(=O)C23CC(F)(C2)C3)c1` [Example 127, N-((4-(5-(1,1-difluoroethyl)-1,2,4-oxadiazol-3-yl)bicyclo[2.2.2]octan-1-yl)methyl)-3-fluoro-N-(3-isopropoxyphenyl)bicyclo[1.1.1]pentane-1-carboxamide] has an EC50 of 0.156 µM. Compound `CC(F)(F)c1ccc(C23CCC(CN(C(=O)C45CC(F)(C4)C5)c4cccc(C#N)c4)(CC2)CC3)nc1` [Example 49, N-(3-cyanophenyl)-N-((4-(5-(1,1-difluoroethyl)pyridin-2-yl)bicyclo[2.2.2]octan-1-yl)methyl)-3-fluorobicyclo[1.1.1]pentane-1-carboxamide] has an EC50 of 0.327 µM. With `CC(F)(F)c1nc(C23CCC(CN(C(=O)C45CC(F)(C4)C5)c4cccc(F)c4)(CC2)CC3)no1` [Example 7, N-((4-(5-(1,1-difluoroethyl)-1,2,4-oxadiazol-3-yl)bicyclo[2.2.2]octan-1-yl)methyl)-3-fluoro-N-(3-fluorophenyl)bicyclo[1.1.1]pentane-1-carboxamide] the EC50 was 0.03 µM. `CC(C)(C)OC(=O)Nc1cccc(N(CC23CCC(c4noc(C(C)(F)F)n4)(CC2)CC3)C(=O)C23CC(F)(C2)C3)c1` [Example 32, Tert-butyl (3-(N-((4-(5-(1,1-difluoroethyl)-1,2,4-oxadiazol-3-yl)bicyclo[2.2.2]octan-1-yl)methyl)-3-fluorobicyclo[1.1.1]pentane-1-carboxamido)phenyl)carbamate] showed an EC50 of 0.062 µM. In the case of `CCOc1cccc(N(CC23CCC(c4nc(C5CC5)no4)(CC2)CC3)C(=O)[C@H]2C[C@](O)(C(F)(F)F)C2)c1` [Example 54, N-((4-(3-cyclopropyl-1,2,4-oxadiazol-5-yl)bicyclo[2.2.2]octan-1-yl)methyl)-N-(3-ethoxyphenyl)-3-hydroxy-3-(trifluoromethyl)cyclobutane-1-carboxamide], the EC50 is reported as 0.938 µM. `CC(F)(F)c1nc(C23CCC(CN(c4cccc(S(=O)(=O)NC5CC5)c4)C(=O)[C@H]4C[C@](O)(C(F)(F)F)C4)(CC2)CC3)no1` [Example 19, (1S,3S)-N-(3-(N-cyclopropylsulfamoyl)phenyl)-N-((4-(5-(1,1-difluoroethyl)-1,2,4-oxadiazol-3-yl)bicyclo[2.2.2]octan-1-yl)methyl)-3-hydroxy-3-(trifluoromethyl)cyclobutane-1-carboxamide] was tested, and the EC50 was 4 µM. Compound `CC(F)(F)c1nc(C23CCC(CN(C(=O)C4CCS(=O)(=O)CC4)c4cc(F)cc(C#N)c4)(CC2)CC3)no1` [Example 138, N-(3-cyano-5-fluorophenyl)-N-((4-(5-(1,1-difluoroethyl)-1,2,4-oxadiazol-3-yl)bicyclo[2.2.2]octan-1-yl)methyl)tetrahydro-2H-thiopyran-4-carboxamide 1,1-dioxide] has an EC50 of 4 µM. In the case of `CC(C)(C)c1noc(C23CCC(CN(C(=O)C45CC(F)(C4)C5)c4cccc(C#N)c4)(CC2)CC3)n1` [Example 38, N-((4-(3-(tert-butyl)-1,2,4-oxadiazol-5-yl)bicyclo[2.2.2]octan-1-yl)methyl)-N-(3-cyanophenyl)-3-fluorobicyclo[1.1.1]pentane-1-carboxamide], the EC50 is reported as 0.142 µM. `CCOc1cccc(N(CC23CCC(c4noc(C(C)(F)F)n4)(CC2)CC3)C(=O)C23CC(F)(C2)C3)c1` [Example 130, N-((4-(5-(1,1-difluoroethyl)-1,2,4-oxadiazol-3-yl)bicyclo[2.2.2]octan-1-yl)methyl)-N-(3-ethoxyphenyl)-3-fluorobicyclo[1.1.1]pentane-1-carboxamide] showed an EC50 of 0.091 µM. `CC(F)(F)c1nc(C23CCC(CN(C(=O)C4CCC(F)(F)CC4)c4ccc(F)c(F)c4)(CC2)CC3)no1` [Example 11, N-((4-(5-(1,1-difluoroethyl)-1,2,4-oxadiazol-3-yl)bicyclo[2.2.2]octan-1-yl)methyl)-N-(3,4-difluorophenyl)-4,4-difluorocyclohexane-1-carboxamide] was tested, and the EC50 was 0.881 µM. In the case of `CC(F)(F)c1nc(C23CCC(CN(c4cccc(Cl)c4)C(=O)[C@H]4C[C@](O)(C(F)(F)F)C4)(CC2)CC3)no1` [Example 2, N-(3-chlorophenyl)-N-((4-(5-(1,1-difluoroethyl)-1,2,4-oxadiazol-3-yl)bicyclo[2.2.2]octan-1-yl)methyl)-3-hydroxy-3-(trifluoromethyl)cyclobutane-1-carboxamide], the EC50 is reported as 0.064 µM. Compound `CC(C)(C)c1noc(C23CCC(CN(C(=O)C45CC(F)(C4)C5)c4ccc(F)c(C(N)=O)c4)(CC2)CC3)n1` [Example 121, N-((4-(3-(tert-butyl)-1,2,4-oxadiazol-5-yl)bicyclo[2.2.2]octan-1-yl)methyl)-N-(3-carbamoyl-4-fluorophenyl)-3-fluorobicyclo[1.1.1]pentane-1-carboxamide] has an EC50 of 0.412 µM. Work on `CS(=O)(=O)c1cccc(N(CC23CCC(c4nc(C5CC5)no4)(CC2)CC3)C(=O)C23CC(F)(C2)C3)c1` [Example 68, N-((4-(3-cyclopropyl-1,2,4-oxadiazol-5-yl)bicyclo[2.2.2]octan-1-yl)methyl)-3-fluoro-N-(3-(methylsulfonyl)phenyl)bicyclo[1.1.1]pentane-1-carboxamide] yielded an EC50 of 1.49 µM. Compound `CC(F)(F)c1nc(C23CCC(CN(C(=O)C4CCC(F)(F)CC4)c4cccc(C#N)c4)(CC2)CC3)no1` [Example 6, N-(3-cyanophenyl)-N-((4-(5-(1,1-difluoroethyl)-1,2,4-oxadiazol-3-yl)bicyclo[2.2.2]octan-1-yl)methyl)-4,4-difluorocyclohexane-1-carboxamide] has an EC50 of 0.106 µM. Work on `CC(C)(O)COc1cccc(N(CC23CCC(c4noc(C(C)(C)C)n4)(CC2)CC3)C(=O)C23CC(F)(C2)C3)c1` [Example 112, N-((4-(5-(tert-butyl)-1,2,4-oxadiazol-3-yl)bicyclo[2.2.2]octan-1-yl)methyl)-3-fluoro-N-(3-(2-hydroxy-2-methylpropoxy)phenyl)bicyclo[1.1.1]pentane-1-carboxamide] yielded an EC50 of 0.063 µM. `CC(F)(F)c1ccc(C23CCC(CN(c4cccc(C#N)c4)C(=O)[C@H]4C[C@@](C)(O)C4)(CC2)CC3)nc1` [Example 50, (1S,3S)-N-(3-cyanophenyl)-N-((4-(5-(1,1-difluoroethyl)pyridin-2-yl)bicyclo[2.2.2]octan-1-yl)methyl)-3-hydroxy-3-methylcyclobutane-1-carboxamide] was tested, and the EC50 was 1.19 µM.
